Source: US10344019B2 (priority 2010, dated 2019)
Where two headings read alike, the source gives them in different places.

Columns and labels:
Type in all cases: cell-based
[1] = system: HCV 2a Rluc cells (NS5A chimeric genotype 2a JFH-1 replicon with genotype 2a J6 strain NS5A gene, M31 present); assay: HCV replicon reporter assay, genotype 2a J6 (M31 present); conditions: Hepatitis C virus, read-out: 2a J6
Procedure: Evaluation of cell-based anti-HCV activity: Antiviral potency (EC50) was determined using a Renilla luciferase (RLuc)-based HCV replicon reporter assay. To perform the assay for genotype 1 and 2a JFH-1, HCV 1b RLuc cells (harboring a dicistronic genotype 1b Con1 replicon that encodes a RLuc reporter), or HCV 1a RLuc cells (harboring a dicistronic genotype 1a H77 replicon that encodes a RLuc reporter), or HCV 2a JFH-1 Rluc cells (harboring a dicistronic genotype 2a JFH-1 replicon that encodes a RLuc reporter) were dispensed into 384-well plates. To perform the assay for genotype 2a (with M31 present) or 2b, HCV 2a Rluc or 2b Rluc cells (both with M31 present) harboring a dicistronic NS5A chimeric genotype 2a JFH-1 replicon that encodes a RLuc reporter and either genotype 2a J6 strain NS5A gene or genotype 2b MD2b-1 NS5A gene (based on Los Alamos HCV database isolates, both with M31 present) respectively, were dispensed into 384-well plates. To perform the assay for genotype 3 and 4, HCV 3a RLuc or 4a Rluc cells harboring a dicistronic NS5A chimeric genotype 1b Con1 replicon that encodes a RLuc reporter and either a consensus genotype 3a NS5A gene or genotype 4a NS5A gene (based on Los Alamos HCV database isolates) respectively, were dispensed into 384-well plates. Compounds were re-suspended in DMSO at a concentration of 10 mM and serially diluted in DMSO either manually or using an automated pipeting instrument. Serially diluted compounds were mixed with cell culture media and added to the seeded cells. […] 72 hours later, cells were lysed and Renilla luciferase activity quantified as recommended by the manufacturer (Promega-Madison, Wis.). Non-linear regression was performed to calculate EC50 values.

[2] = system: HCV 1b RLuc cells (dicistronic genotype 1b Con1 replicon, RLuc reporter); assay: microbe, parasite or virus in culture; conditions: Hepatitis C virus, read-out: 1b (nM)
Method in brief: (§1)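 Renilla luciferase HCV replicon cells: dicistronic 1b Con1, 1a H77 or 2a JFH-1 replicons, or a JFH-1 chimera carrying J6 NS5A (M31 present). Compound in DMSO serial dilutions, 72 h incubation, then lysis and luciferase read. EC50 by non-linear regression.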

[3] = system: HCV 2b Rluc cells (NS5A chimeric genotype 2a JFH-1 replicon with genotype 2b MD2b-1 NS5A gene, M31 present); assay: microbe, parasite or virus in culture; conditions: Hepatitis C virus, read-out: 2b
Method in brief: (§2)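 Replicon cells stably carrying the listed RLuc-encoding dicistronic replicons were seeded and treated with DMSO serial dilutions of compound (10 mM stocks) diluted into culture medium. After 72 h, cells were lysed and Renilla luciferase activity measured. EC50 was derived by non-linear regression.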

[4] = system: HCV 2a JFH-1 Rluc cells (dicistronic genotype 2a JFH-1 replicon, RLuc reporter); assay: microbe, parasite or virus in culture; conditions: Hepatitis C virus, read-out: 2a JFH
Method in brief: as §1

[5] = system: HCV 1a RLuc cells (dicistronic genotype 1a H77 replicon, RLuc reporter); assay: microbe, parasite or virus in culture; conditions: Hepatitis C virus, read-out: 1a
Method in brief: as §1

[6] = system: HCV 4a Rluc cells (NS5A chimeric genotype 1b Con1 replicon with genotype 4a NS5A gene); assay: microbe, parasite or virus in culture; conditions: Hepatitis C virus, read-out: 4a
Method in brief: as §2

[7] = system: HCV 3a RLuc cells (NS5A chimeric genotype 1b Con1 replicon with consensus genotype 3a NS5A gene); assay: microbe, parasite or virus in culture; conditions: Hepatitis C virus
Method in brief: as §2

[8] = genotype 2a JFH-1 RLuc replicon
[9] = read-out: 3a, genotype 3a replicon
[10] = 72 h, Table 2, genotype 2a JFH-1 replicon, 72 hours
[11] = 72 h, Table 2, genotype 1a H77 replicon, 72 hours
[12] = read-out: 3a, Table 2, genotype 3a NS5A chimeric replicon

| SMILES | EC50 [1] [nM] | EC50 [2] [nM] | EC50 [3] [nM] | EC50 [4, 8] [nM] | EC50 ([5]; genotype 1a H77 RLuc replicon) [nM] | EC50 [6] [nM] | also measured |
| --- | --- | --- | --- | --- | --- | --- | --- |
| CC[C@H](C)[C@H](NC(=O)OC)C(=O)N1C[C@@H](COC)C[C@H]1c1ncc(-c2ccc3c(c2)COc2cc4c(ccc5nc([C@@H]6CC[C@H](C)N6C(=O)[C@@H](NC(=O)OC)C(C)C)[nH]c54)cc2-3)[nH]1 [Example 619] | 0.001 to 0.999 | 0.007 | 0.001 to 0.999 | 0.001 to 0.999 | 0.001 to 0.999 | – | – |
| COC(=O)N[C@H](C(=O)N1C[C@@H](COC(F)F)C[C@H]1c1ncc(-c2ccc3c(c2)COc2cc4c(ccc5nc([C@@H]6CC[C@H](C)N6C(=O)[C@@H](NC(=O)OC)C(C)C)[nH]c54)cc2-3)[nH]1)C(C)C [Example 632] | 0.001 to 0.999 | 0.008 | 0.001 to 0.999 | 0.001 to 0.999 | 0.001 to 0.999 | – | – |
| CC[C@H](C)C(NC(=O)OC)C(=O)N1CCC[C@H]1c1ncc(-c2cc3c4c(c2)OCc2cc(-c5cnc([C@@H]6CCCN6C(=O)[C@@H](NC(=O)OC)[C@@H](C)CC)[nH]5)cc(c2-4)OC3)[nH]1 (stereo in doubt) [Example 346] | – | 0.019 | 1 to 44 | – | – | 0.001 to 0.99 | EC50 [4]: 0.001 to 0.999 nM; EC50 [5]: 0.001 to 0.999 nM; EC50 [7, 9]: 0.001 to 0.99 nM |
| CC[C@@H](C)[C@H](NC(=O)OC)C(=O)N1C[C@@H](COC)C[C@H]1c1nc2ccc3cc4c(cc3c2[nH]1)OCc1cc(-c2cnc([C@@H]3CC[C@H](C)N3C(=O)[C@@H](NC(=O)OC)[C@H](C)CC)[nH]2)ccc1-4 [Example 643] | 0.001 to 0.999 | – | 0.001 to 0.999 | 0.001 to 0.999 | 0.001 to 0.999 | – | – |
| CC[C@H](C)[C@H](NC(=O)OC)C(=O)N1C[C@@H](COC)C[C@H]1c1nc2ccc3cc4c(cc3c2[nH]1)OCc1cc(-c2cnc([C@@H]3CC[C@H](C)N3C(=O)[C@@H](NC(=O)OC)C(C)C)[nH]2)ccc1-4 [Example 623] | 0.001 to 0.999 | 0.006 | 0.001 to 0.999 | 0.001 to 0.999 | 0.001 to 0.999 | – | – |
| COC[C@H]1C[C@@H](c2nc3ccc4cc5c(cc4c3[nH]2)OCc2cc(-c3cnc([C@@H]4CCCN4C(=O)[C@H](NC(=O)OC)c4ccccc4)[nH]3)ccc2-5)N(C(=O)[C@@H](NC(=O)OC)[C@@H](C)OC)C1 [Example 635] | – | – | 0.001 to 0.999 | – | – | – | EC50 [4]: 0.001 to 0.999 nM; EC50 [5]: 0.001 to 0.999 nM |
| COC(=O)NC(C(=O)N1C[C@@H](C)C[C@H]1c1nc2ccc3cc4c(cc3c2[nH]1)OCc1cc(-c2cnc([C@@H]3CC[C@H](C)N3C(=O)[C@@H](NC(=O)OC)C(C)C)[nH]2)ccc1-4)[C@H](C)OC (stereo partly drawn) [Example 621] | 0.001 to 0.999 | 0.013 | 0.001 to 0.999 | 0.001 to 0.999 | 0.001 to 0.999 | – | – |
| COC(=O)N[C@H](C(=O)N1[C@@H](C)CC[C@H]1c1ncc(-c2ccc3c(c2)COc2cc4c(ccc5nc([C@@H]6CCCN6C(=O)[C@H](N)c6ccccc6)[nH]c54)cc2-3)[nH]1)C(C)C [Example 604] | 0.001 to 0.999 | 0.02 | 0.001 to 0.999 | 0.001 to 0.999 | 0.001 to 0.999 | – | – |
| CC[C@@H](C)[C@H](NC(=O)OC)C(=O)N1C[C@@H](COC)C[C@H]1c1ncc(-c2ccc3c(c2)COc2cc4c(ccc5nc([C@@H]6CC[C@H](C)N6C(=O)[C@@H](NC(=O)OC)C(C)C)[nH]c54)cc2-3)[nH]1 [Example 628] | 0.001 to 0.999 | – | 0.001 to 0.999 | 0.001 to 0.999 | 0.001 to 0.999 | – | – |
| COC[C@H]1C[C@@H](c2nc3ccc4cc5c(cc4c3[nH]2)OCc2cc(-c3cnc([C@@H]4C[C@H](C)CN4C(=O)C(NC(=O)OC)[C@H](C)OC)[nH]3)ccc2-5)N(C(=O)[C@@H](NC(=O)OC)[C@H](C)OC)C1 (stereo partly drawn) [Example 620] | 0.001 to 0.999 | 0.081 | 0.001 to 0.999 | 0.001 to 0.999 | 0.001 to 0.999 | – | – |
| CC[C@H](C)[C@H](NC(=O)OC)C(=O)N1[C@@H](C)CC[C@H]1c1ncc(-c2ccc3c(c2)COc2cc4c(ccc5nc([C@@H]6C[C@H](COC)CN6C(=O)[C@@H](NC(=O)OC)C(C)C)[nH]c54)cc2-3)[nH]1 [Example 638] | 0.001 to 0.999 | 0.009 | 0.001 to 0.999 | 0.001 to 0.999 | 0.001 to 0.999 | – | – |
| COC[C@H]1C[C@@H](c2ncc(-c3ccc4c(c3)COc3cc5c(ccc6nc([C@@H]7CCCN7C(=O)[C@@H](NC(=O)OC)C(C)C)[nH]c65)cc3-4)[nH]2)N(C(=O)[C@H](N)c2ccccc2)C1 [Example 607] | 0.001 to 0.999 | – | 0.001 to 0.999 | 0.001 to 0.999 | 0.001 to 0.999 | – | – |
| COC(=O)N[C@H](C(=O)N1[C@@H](C)CC[C@H]1c1ncc(-c2ccc3c(c2)COc2cc4c(ccc5nc([C@@H]6CCCN6C(=O)[C@@H](NC(=O)OC)C6CCOCC6)[nH]c54)cc2-3)[nH]1)C(C)C [Example 602] | 0.001 to 0.999 | – | 0.001 to 0.999 | 0.001 to 0.999 | 0.001 to 0.999 | – | – |
| COC(=O)N[C@H](C(=O)N1CCC[C@H]1c1ncc(-c2ccc3c(c2)COc2cc(-c4cnc([C@@H]5CCCN5C(=O)[C@@H](NC(=O)OC)C(C)C)[nH]4)cc(F)c2-3)[nH]1)C(C)C [Example 393] | > 44 | 0.012 | – | – | – | 0.001 to 0.99 | EC50 ([4]; genotype 2a JFH-1 replicon): 0.001 to 0.999 nM; EC50 ([5]; genotype 1a replicon): 0.001 to 0.999 nM; EC50 [7, 9]: 0.001 to 0.99 nM |
| COC(=O)N[C@H](C(=O)N1[C@@H]2CC[C@@H](C2)[C@H]1c1nc2ccc3cc(-c4ccc(-c5cnc([C@@H]6C[C@H]7C[C@H]7N6C(=O)[C@@H](NC(=O)OC)C(C)C)[nH]5)c(F)c4)ccc3c2[nH]1)C(C)C [Example 391] | > 44 | 0.009 | – | – | – | 0.001 to 0.99 | EC50 ([4]; genotype 2a JFH-1 replicon): 0.001 to 0.999 nM; EC50 ([5]; genotype 1a replicon): 0.001 to 0.999 nM; EC50 [7, 9]: > 5 nM |
| COC(=O)NC(C(=O)N1CCC[C@H]1c1ncc(-c2ccc(-c3ccc4c(ccc5nc([C@@H]6[C@H]7CC[C@H](C7)N6C(=O)[C@@H](NC(=O)OC)[C@@H](C)OC)[nH]c54)c3)cc2)[nH]1)C(C)C (stereo partly drawn) [Example 66] | > 44 | – | – | – | – | 0.001 to 0.99 | EC50 ([2]; 72 h): 0.022 nM; EC50 [4, 10]: 0.001 to 0.999 nM; EC50 [5, 11]: 0.001 to 0.999 nM; EC50 [7, 12]: 0.001 to 0.99 nM |
| COC(=O)N[C@H](C(=O)N1CCC[C@H]1c1ncc(-c2cc3c4c(c2)OCc2cc(-c5cnc([C@@H]6CCCN6C(=O)[C@@H](NC(=O)OC)C6CCOCC6)[nH]5)cc(c2-4)OC3)[nH]1)C(C)C [Example 25b] | 1 to 44 | – | – | – | – | 0.001 to 0.99 | EC50 ([2]; 72 h): 0.176 nM; EC50 ([4]; 72 h, Table 1, genotype 2a JFH-1 replicon, 72 hours): 0.001 to 0.999 nM; EC50 ([5]; 72 h, Table 1, genotype 1a H77 replicon, 72 hours): 0.001 to 0.999 nM; EC50 ([7]; read-out: 3a, Table 1, genotype 3a NS5A chimeric replicon): 0.001 to 0.99 nM |
| COC(=O)NC(C(=O)N1CCC[C@H]1c1ncc(-c2ccc(-c3ccc4c(ccc5nc([C@@H]6[C@H]7CC[C@H](C7)N6C(=O)[C@@H](NC(=O)OC)C(C)C)[nH]c54)c3)cc2)[nH]1)C(C)C (stereo partly drawn) [Example 65] | > 44 | – | – | – | – | 0.001 to 0.99 | EC50 ([2]; 72 h): 0.015 nM; EC50 [4, 10]: 0.001 to 0.999 nM; EC50 [5, 11]: 0.001 to 0.999 nM; EC50 [7, 12]: 0.001 to 0.99 nM |
| COC(=O)N[C@H](C(=O)N1CCC[C@H]1c1nc2ccc3cc(-c4ccc(-c5cnc([C@@H]6[C@H]7CC[C@H](C7)N6C(=O)[C@@H](NC(=O)OC)[C@@H](C)OC)[nH]5)cc4)ccc3c2[nH]1)C(C)C [Example 55] | > 44 | – | – | – | – | 0.001 to 0.99 | EC50 ([2]; 72 h): 0.015 nM; EC50 [4, 10]: 0.001 to 0.999 nM; EC50 [5, 11]: 0.001 to 0.999 nM; EC50 [7, 12]: 0.001 to 0.99 nM |
